Experimental data published in US8853387B2, “Mimetics of sulfated oligosaccharides” (Istituto di Ricerche Chimiche e Biochimiche “G. Ronzoni”, priority 2008, dated 2014).

Target: T1, recombinant human heparanase (Homo sapiens, UniProt Q9Y251)
T1 sequence (Q9Y251 158-543 limits assumed): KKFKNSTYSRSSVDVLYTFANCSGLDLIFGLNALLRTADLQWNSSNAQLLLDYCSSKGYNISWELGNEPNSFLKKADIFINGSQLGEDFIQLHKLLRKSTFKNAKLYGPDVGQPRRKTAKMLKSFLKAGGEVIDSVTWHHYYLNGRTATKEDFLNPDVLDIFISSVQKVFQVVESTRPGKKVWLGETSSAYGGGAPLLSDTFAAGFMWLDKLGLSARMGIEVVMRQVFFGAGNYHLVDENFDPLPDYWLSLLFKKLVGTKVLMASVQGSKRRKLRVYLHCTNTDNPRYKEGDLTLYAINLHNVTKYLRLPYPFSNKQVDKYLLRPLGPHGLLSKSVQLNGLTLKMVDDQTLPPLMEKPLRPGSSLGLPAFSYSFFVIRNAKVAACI
T1 sequence (Q9Y251 36-109 limits assumed): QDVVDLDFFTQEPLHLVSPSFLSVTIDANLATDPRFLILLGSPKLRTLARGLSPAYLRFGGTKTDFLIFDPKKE
Assay: Heparanase activity on sulfate labeled ECM substrate
Format: biochemical
Settings: compound at 5 μg/ml; recombinant human heparanase 10 ng/ml, 37° C., pH 6.0, 4 h; control (enzyme alone) = 100
Method: Sulfated compound was tested at two concentrations (1 & 5 μg/ml) for its ability to inhibit the heparanase enzyme, using metabolically sulfate labeled ECM as a substrate. Briefly, sulfate labeled ECM coating the surface of 35-mm tissue culture dishes, is incubated (37° C., pH 6.0, 4 h, 1 ml final volume) with recombinant human heparanase (10 ng/ml) in the absence and presence of increasing amounts of each compound. The reaction mixture contains: 50 mM NaCl, 1 mM DTT, 1 mM CaCl2, and 10 mM buffer Phosphate-Citrate, pH 6.0. To evaluate the occurrence of proteoglycan degradation, the incubation medium is collected and applied for gel filtration on Sepharose 6B columns (0.9×30 cm). Fractions (0.2 ml) are eluted with PBS at a flow rate of 5 ml/h and counted for radioactivity. The excluded volume (VO) is marked by blue dextran and the total included volume (Vt) by phenol red. Degradation fragments of HS side chains are eluted at 0.5<Kav<0.8 (peak II). Results are best presented as the actual gel filtration profiles. Numerical values derived from these graphs are presented in FIG. 1 as heparanase activity (% of control), where: Heparanase activity=Kav×total cpm in peak II (fractions 15-35). Kav=(Ve−Vo/Vt−Vo). • Control Kay=Kay obtained in the presence of enzyme alone (without inhibitors). Effect of Sulfated Malto-Oligosaccharides Mimics (MOS) on Hpa Activity—Tables 1 and 2.

- Heparanase activity (5 μg/ml): 27 % of control
Substance: Maltohexaose sulfate [MHS]
